Laboratory results published in US20250313574A1, “SIALIC ACID DERIVATIVES AND METHODS OF USING SAME” (EISAI R&D MANAGEMENT CO., LTD., priority 2022, published 2025).
pEC50: −log10 of the molar value.

How the values were obtained:
[1] = biological target: Recombinant human CD33 protein (Homo sapiens (Human), UniProt P20138); test: CD33 competitive binding assay for HTS drug screen (fluorescent multivalent sialic acid probe)
Method in brief: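 Inhibition was read as reduced retention of a fluorescent multivalent sialic acid complex (final 5 μM neutravidin, 15 μM A-375, 5 μM biotin-4-FITC) on plate-immobilized human CD33. Compound was added first, the probe followed for 30 min at room temperature in PBS with 0.2% Tween-20 and 0.5% BSA, and FITC was measured after a wash.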

[2] = biological target: Recombinant Human Siglec-3/CD33 protein (His-CD33) (Homo sapiens (Human), UniProt P20138); test: Differential scanning fluorimetry (DSF) thermal shift assay; type: binding; details: difference in thermal melt of CD33 protein (0.5 μM) with 50 μM compound
Recombinant Human Siglec-3/CD33 protein (His-CD33), sequence (P20138 18-259): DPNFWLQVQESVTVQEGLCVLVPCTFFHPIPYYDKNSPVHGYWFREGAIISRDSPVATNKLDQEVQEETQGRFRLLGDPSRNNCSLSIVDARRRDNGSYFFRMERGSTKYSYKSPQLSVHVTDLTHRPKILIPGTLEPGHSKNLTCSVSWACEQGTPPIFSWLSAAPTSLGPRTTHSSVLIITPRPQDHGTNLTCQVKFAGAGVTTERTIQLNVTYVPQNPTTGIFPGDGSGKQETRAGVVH

Recombinant human CD33 protein, sequence (P20138 18-259): as above

SMILES	pEC50 [1]	DSF (dTmD) [2]
CC(=O)N[C@H]1[C@H]([C@H](O)[C@H](O)CNC(=O)c2cc(C)c(O)c(C)c2)O[C@@](C/C=C/c2cccc(CNC(=O)C3CCCOC3)c2)(C(=O)O)C[C@@H]1O (stereo partly drawn) [A-293]	5.10	4.2 °C
CC(=O)N[C@H]1[C@H]([C@H](O)[C@H](O)CNC(=O)c2cc(C)c(O)c(C)c2)O[C@@](C/C=C/c2cnc(CNC(=O)C3CCCOC3)s2)(C(=O)O)C[C@@H]1O (stereo partly drawn) [A-294]	5.34	4.2 °C
CC(=O)N[C@H]1[C@H]([C@H](O)[C@H](O)CNC(=O)c2cc(C)c(O)c(C)c2)O[C@@](C/C=C/c2cccc(C3CCCN3C(=O)OC(C)(C)C)c2)(C(=O)O)C[C@@H]1O (stereo partly drawn) [A-295]	5.18	4.0 °C
CC(=O)N[C@H]1[C@H]([C@H](O)[C@H](O)CNC(=O)c2cc(C)c(O)c(C)c2)O[C@@](CC2OC(C)(C)O[C@H]2c2cccc(NC(=O)OC(C)(C)C)c2)(C(=O)O)C[C@@H]1O (stereo partly drawn) [A-296]	6.32	6.4 °C
Cc1cc(C(=O)NC[C@@H](O)[C@@H](O)[C@@H]2O[C@@](CC3OC(C)(C)O[C@H]3c3cccc(NC(=O)OC(C)(C)C)c3)(C(=O)O)C[C@H](O)[C@H]2NC(=O)Cn2cc(C3CCCCC3)nn2)cc(C)c1O (stereo partly drawn) [A-299]	6.29	8.0 °C
Cc1cc(C(=O)NC[C@@H](O)[C@@H](O)[C@@H]2O[C@@](CC(O)[C@@H](O)c3cccc(NC(=O)OC(C)(C)C)c3)(C(=O)O)C[C@H](O)[C@H]2NC(=O)Cn2cc(C3CCCCC3)nn2)cc(C)c1O (stereo partly drawn) [A-300]	4.35	1.6 °C
Cc1cc(C(=O)NC[C@@H](O)[C@@H](O)[C@@H]2O[C@@](CC3OC(C)(C)O[C@H]3c3cccc(CNC(=O)OC(C)(C)C)c3)(C(=O)O)C[C@H](O)[C@H]2NC(=O)Cn2cc(C3CCCCC3)nn2)cc(C)c1O (stereo partly drawn) [A-301]	5.28	3.5 °C
CC(=O)N[C@H]1[C@H]([C@H](O)[C@H](O)CNC(=O)c2cc(C)c(O)c(C)c2)O[C@@](CC2OC(C)(C)O[C@H]2c2cccc(NC(=O)c3ccc4cc[nH]c4c3)c2)(C(=O)O)C[C@@H]1O (stereo partly drawn) [A-302]	5.82	4.9 °C
CC(=O)N[C@H]1[C@H]([C@H](O)[C@H](O)CNC(=O)c2cc(C)c(O)c(C)c2)O[C@@](CC2OC(C)(C)O[C@H]2c2cccc(NC(=O)CC(C)(C)C)c2)(C(=O)O)C[C@@H]1O (stereo partly drawn) [A-303]	5.82	4.9 °C
CC(=O)N[C@H]1[C@H]([C@H](O)[C@H](O)CNC(=O)c2cc(C)c(O)c(C)c2)O[C@@](CC(O)[C@@H](O)c2cccc(NC(=O)CC(C)(C)C)c2)(C(=O)O)C[C@@H]1O (stereo partly drawn) [A-304]	5.33	3.9 °C
CC(=O)N[C@H]1[C@H]([C@H](O)[C@H](O)CNC(=O)c2cc(C)c(O)c(C)c2)O[C@@](CC2OC(C)(C)O[C@H]2c2cccc(NC(=O)C(=O)[C@H](C)c3cc(C4CC4)no3)c2)(C(=O)O)C[C@@H]1O (stereo partly drawn) [A-305]	6.10	5.4 °C
CC(=O)N[C@H]1[C@H]([C@H](O)[C@H](O)CNC(=O)c2cc(C)c(O)c(C)c2)O[C@@](CC2COC(C)(C)O2)(C(=O)O)C[C@@H]1O (stereo partly drawn) [A-307]	3.99	0.0 °C
CC(=O)N[C@H]1[C@H]([C@H](O)[C@H](O)CNC(=O)c2cc(C)c(O)c(C)c2)O[C@@](CC2OC(C)(C)O[C@H]2c2cccc(N3CCCC3=O)c2)(C(=O)O)C[C@@H]1O (stereo partly drawn) [A-309]	6.27	5.2 °C
CC(=O)N[C@H]1[C@H]([C@H](O)[C@H](O)CNC(=O)c2cc(C)c(O)c(C)c2)O[C@@](CC2OC(C)(C)O[C@H]2c2ccccc2CNC(=O)OC(C)(C)C)(C(=O)O)C[C@@H]1O (stereo partly drawn) [A-310]	5.49	3.5 °C
CC(=O)N[C@H]1[C@H]([C@H](O)[C@H](O)CNC(=O)c2cc(C)c(O)c(C)c2)O[C@@](CC2OC(C)(C)O[C@H]2c2cccc(C(=O)NCc3ccccc3)c2)(C(=O)O)C[C@@H]1O (stereo partly drawn) [A-311]	5.20	0.5 °C
CC(=O)N[C@H]1[C@H]([C@H](O)[C@H](O)CNC(=O)c2cc(C)c(O)c(C)c2)O[C@@](CC2OC(C)(C)O[C@@H]2c2cccc(C(=O)NCc3ccccc3)c2)(C(=O)O)C[C@@H]1O (stereo partly drawn) [A-312]	6.80	4.5 °C
CC(=O)N[C@H]1[C@H]([C@H](O)[C@H](O)CNC(=O)c2cc(C)c(O)c(C)c2)O[C@@](CC2OC(C)(C)O[C@H]2c2cccc(CN3CCOCC3)c2)(C(=O)O)C[C@@H]1O (stereo partly drawn) [A-313]	4.92	0.0 °C
CC(=O)N[C@H]1[C@H]([C@H](O)[C@H](O)CNC(=O)c2cc(C)c(O)c(C)c2)O[C@@](CC2OC(C)(C)O[C@H]2c2cccc3c2CN(C(=O)OC(C)(C)C)C3)(C(=O)O)C[C@@H]1O (stereo partly drawn) [A-314]	5.11	0.1 °C
CC(=O)N[C@H]1[C@H]([C@H](O)[C@H](O)CNC(=O)c2cc(C)c(O)c(C)c2)O[C@@](CC2OC(C)(C)O[C@H]2c2cccc(CC(=O)OC(C)(C)C)c2)(C(=O)O)C[C@@H]1O (stereo partly drawn) [A-315]	5.94	4.2 °C
CC(=O)N[C@H]1[C@H]([C@H](O)[C@H](O)CNC(=O)c2cc(C)c(O)c(C)c2)O[C@@](CC2OC(C)(C)O[C@H]2c2cccc(N3CCCCC3=O)c2)(C(=O)O)C[C@@H]1O (stereo partly drawn) [A-316]	5.31	3.8 °C
CC(=O)N[C@H]1[C@H]([C@H](O)[C@H](O)CNC(=O)c2cc(C)c(O)c(C)c2)O[C@@](CC2OC(C)(C)O[C@H]2c2ccc(F)c(N3CCCC3=O)c2)(C(=O)O)C[C@@H]1O (stereo partly drawn) [A-317]	6.04	6.5 °C
CC(=O)N[C@H]1[C@H]([C@H](O)[C@H](O)CNC(=O)c2cc(C)c(O)c(C)c2)O[C@@](CC2OC(C)(C)O[C@H]2c2cc(N3CCCC3=O)ccc2C)(C(=O)O)C[C@@H]1O (stereo partly drawn) [A-318]	6.89	7.4 °C
CC(=O)N[C@H]1[C@H]([C@H](O)[C@H](O)CNC(=O)c2cc(C)c(O)c(C)c2)O[C@@](CC2OC(C)(C)O[C@H]2c2ccc(C)c(N3CCCC3=O)c2)(C(=O)O)C[C@@H]1O (stereo partly drawn) [A-319]	5.37	2.8 °C
CC(=O)N[C@H]1[C@H]([C@H](O)[C@H](O)CNC(=O)c2cc(C)c(O)c(C)c2)O[C@@](CC2OC(C)(C)O[C@@H]2c2ccc(C)c(N3CCCC3=O)c2)(C(=O)O)C[C@@H]1O (stereo partly drawn) [A-320]	6.02	4.8 °C
CC(=O)N[C@H]1[C@H]([C@H](O)[C@H](O)CNC(=O)c2cc(Cl)c(O)c(Cl)c2)O[C@@](CC2OC(C)(C)O[C@H]2c2cccc(C(=O)NCc3ccccc3)c2)(C(=O)O)C[C@@H]1O (stereo partly drawn) [A-321]	6.66	7.2 °C
CC(=O)N[C@H]1[C@H]([C@H](O)[C@H](O)CNC(=O)c2cc(Cl)c(O)c(Cl)c2)O[C@@](CC2OC(C)(C)O[C@@H]2c2cccc(C(=O)NCc3ccccc3)c2)(C(=O)O)C[C@@H]1O (stereo partly drawn) [A-322]	5.11	3.0 °C
Cc1cc(C(=O)NC[C@@H](O)[C@@H](O)[C@@H]2O[C@@](OCCOCCNC(=O)OCc3ccccc3)(C(=O)O)C[C@H](O)[C@H]2NC(=O)Cn2cc(C3CCCCC3)nn2)cc(C)c1O [A-323]	4.96	4.4 °C
